The values below are quoted from earlier work in patent US8003635B2, “Superoxide dismutase mimics for the treatment of ocular disorders and diseases” (Novartis AG, priority 2001, dated 2011).

For one data set, the system named is onset of diabetes. As to conditions: diabetogenic T-cell clone.
For data set [1], the system named is light-induced retinal damage. As to conditions: albino rats.

Consider `CCN1C=CC=C/C1=C1/C2=NC(=C(c3cccc[n+]3CC)C3=NC(=C(c4cccc[n+]4CC)c4ccc([n-]4)C(c4cccc[n+]4CC)=C4C=CC1=N4)C=C3)C=C2.[Cl-].[Cl-].[Cl-].[Cl-].[Cl-].[Mn+3]` [AEOL10113], for which, in the data set with onset of diabetes, the onset of diabetes entry is on record as “delay the onset of diabetes”.
Turning to `[Cl-].[Cl-].[Mn+2].c1cc2nc(c1)CN[C@@H]1CCCC[C@H]1NCCN[C@@H]1CCCC[C@H]1NC2` [M40403], in the data set with diabetic rats, the “vascular and neural dysfunction” value was “prevented vascular and neural dysfunction”.
Take `CC1(C)CC(O)CC(C)(C)N1[O]` [4-hydroxy-2,2,6,6-tetramethylpiperidine-1-oxyl]: the light-induced retinal damage entry in data set [1] is listed as “inhibited light-induced retinal damage”.
